Data as given in paper PMC5045942, “Evaluation of a novel PXR‐knockout in HepaRG™ cells” (Pharmacology Research & Perspectives, 2016).
Values joined by “and” are separate entries in the source; they are usually repeats but may differ in a detail not shown here. Identical values can stand only once. Like-named read-outs stand apart in the source and are kept apart here.

Assays:
[1] = tested on: CYP2B6 mRNA; assay: CYP2B6 mRNA induction in 5F HepaRG control cells (real-time PCR); assay type: in vitro ADME, human; conditions: for E max, induction of CYP2B6 mRNA, 5F / EC50 / EC50 at 48 h: 5F cells; for EC50 at 48 h: human
Description: (§1) 5F, CAR‐KO, and PXR‐KO HepaRG cells were thawed in recovery medium and plated into 96‐well collagen‐1‐coated plates at a volume of 200 μL/well. The cells were incubated at 37°C in a humidified incubator with 5% CO2 for 48 h. The recovery medium was replaced with maintenance medium and procedure repeated every Monday, Wednesday, and Friday for 18 days. On day 18, the maintenance medium was replaced with pre‐incubation medium for 72 h. On day 21, the cells were incubated with test compounds in serum‐free induction medium for 48 h. Test compounds were freshly dissolved in DMSO and then serum‐free induction medium to achieve a final DMSO concentration of 0.1% every 24 h. For enzyme induction assays, cells were thawed into recovery medium and plated into 24‐well plates at a volume of 1 mL/well. Culture conditions were as described above.
(§2) mRNA was extracted from the cell monolayers using the SV96 total RNA isolation system according to the manufacturer's instructions. Reverse transcription of mRNA to cDNA was completed using Taqman reverse transcription (RT) assay. […] An Agilent Mx3005P thermocycler was used to run a thermal cycle of: 10 min at 25°C, 30 min at 37°C, 5 min at 95°C, and a hold phase at 4°C.
(§3) An Agilent Mx3005P thermocycler was used to determine the gene expression of selected genes. Real‐time PCR solutions were prepared as described by the manufacturer. Each reaction contained 12.5 μL volume. […] PCR conditions were 15 min at 95°C (to activate polymerase, denature cDNA, and initiate PCR) followed by 40 cycles of 15 sec at 94°C (denaturation), and 60 sec at 60°C (annealing/extension of the product). Fluorescence was measured at the end of each cycle.
(§4) Gene expression data were compared to an average of GAPDH and normalized to the control sample using the comparative threshold cycle (C(t)) method (Ct = 2^−∆∆C(t)). […] Where possible data were fitted to a sigmoidal E max model (WinNonLin Phoenix, Pharsight, 6.3.0.395). All human hepatocyte data are the average of duplicate experiments and three compound concentrations. HepaRG WT are the average of triplicate experiments completed in duplicate. HepaRG 5F and HepaRG PXR‐KO data are the average of duplicate experiments and duplicate replicates of each compound concentration (six concentrations).

[2] = tested on: CYP2B6 mRNA; assay: CYP2B6 mRNA induction in HepaRG wild-type cells (real-time PCR); assay type: in vitro ADME, human; conditions: for E max, induction of CYP2B6 mRNA, HepaRG: E max ± SD; for EC50: human, EC50 ± SD
Description: (§5) HepaRG cells were thawed in thawing and maintenance medium and plated into 96‐well collagen‐1‐coated plates at a volume of 200 μL/well. The cells were incubated at 37°C in a humidified incubator with 5% CO2 for 72 h. Test compounds were freshly dissolved in DMSO and then serum‐free induction medium to achieve a final DMSO concentration of 0.1% every 24 h.
as §2, §3, §4

[3] = tested on: CYP2B6 mRNA; assay: CYP2B6 mRNA induction in PXR-KO HepaRG cells (real-time PCR); assay type: in vitro ADME, human; conditions: for EC50 for CYP2B6 in PXR-KO cells in comparison to other cell types (in words): PXR-KO vs 5F cells / other cell types; for E max for CYP2B6 in PXR-KO cells in comparison to other cell types (in words): PXR-KO vs 5F, HepaRG WT cells and PHHs; for EC50 at 48 h: human
Description: as §1, §2, §3, §4

[4] = tested on: CYP2B6 mRNA; assay: in vitro; conditions: human
Description: (§6) Cryopreserved male human hepatocytes were thawed in CHRM and plated into a 96‐well collagen‐1‐coated plate at a density of 7.5 × 10^4 viable cells in 200 μL of CHPM. Trypan blue exclusion was used to determine cell viability with a cut‐off of 85% viability. The cells were incubated at 37°C in a humidified incubator with 5% CO2. Plating medium was replaced with maintenance medium following 4 h incubation and then maintained overnight before 48 h treatment with test compound. Test compounds were freshly dissolved in dimethyl sulfoxide (DMSO) and then culture medium to achieve a final DMSO concentration of 0.1%. A vehicle control of medium with 0.1% DMSO was included in all studies.
as §2, §3
(§7) Gene expression data were compared to an average of GAPDH and normalized to the control sample using the comparative threshold cycle (C(t)) method (Ct = 2^−∆∆C(t)). […] Where possible data were fitted to a sigmoidal E max model (WinNonLin Phoenix, Pharsight, 6.3.0.395). All human hepatocyte data are the average of duplicate experiments and three compound concentrations.

[5] = tested on: CYP2B6 mRNA; assay: CYP2B6 mRNA induction in cryopreserved primary human hepatocytes (real-time PCR); conditions: 48 h; for E max, induction of CYP2B6 mRNA, primary human hepatocyte donor D3: donor D3 (Hu8132)
Description: as §6, §2, §3, §7

[6] = tested on: CYP3A4 mRNA
Description: as §1, §2, §3, §4

[7] = tested on: CYP3A4 mRNA; assay: CYP3A4 mRNA induction in HepaRG wild-type cells (real-time PCR); conditions: for E max, induction of CYP3A4 mRNA, HepaRG: E max ± SD; for EC50: human
Description: as §5, §2, §3, §4

[8] = tested on: CYP3A4 mRNA; assay: CYP3A4 mRNA induction in 5F HepaRG control cells (real-time PCR); conditions: for EC50 at 48 h: human, 5F HepaRG control cells; for EC50: read-out: EC50, induction of CYP3A4 mRNA, 5F
Description: as §1, §2, §3, §4

[9] = tested on: CYP3A4 mRNA; assay: CYP3A4 mRNA induction in PXR-KO HepaRG cells (real-time PCR)
Description: as §1, §2, §3, §4

[10] = tested on: CYP2B6; assay: CYP2B6 enzyme activity induction (bupropion, LC-MS/MS) in PXR-KO and 5F cells; assay type: in vitro ADME, human; conditions: 1.5 μmol/L CITCO, 258 μmol/L phenobarbital; bupropion 100 μmol/L, 2 h; PXR-KO vs 5F cells (Fig. 3)
Description: Culture conditions were as described above.
P450 enzyme activity was assessed by incubating whole‐cell monolayers for 2 h at 37°C using 100 μmol/L bupropion (CYP2B6) in unsupplemented Williams E media with a final concentration of 0.1% DMSO. Reactions were quenched by removing supernatants and diluting 1:2 into ice‐cold acetonitrile. Samples were stored at −20°C until LC‐MS/MS analysis was completed.
LC‐MS/MS analysis utilized an API‐4000 Q Trap mass spectrometer with a Turbo V atmospheric pressure electrospray ionization source (AB SCIEX, Framingham, MA). Samples (40 μL) were injected onto a Fortis C18 column (3 × 50 mm, 5 μm) and eluted by a mobile phase gradient specific for each test article (mobile phase A: 0.1% formic acid in water; mobile phase B: 0.1% formic acid in acetonitrile). Flow rate was 0.5 mL/min. MS conditions: positive or negative ionization mode (4.5 kV spray voltage); source temperature of 450°C with multiple reaction monitoring specific for each analyte and internal standard parent–product ion pairs. Peak areas of analyte and internal standard and resulting ratios were quantified using Analyst 1.5.2 (AB SCIEX, Framingham, MA).

[11] = tested on: CYP3A4 mRNA; conditions: human
Description: as §1, §2, §3, §4

[12] = tested on: CYP3A4 mRNA; conditions: human; remark: listed apart in the source
Description: as §5, §2, §3, §4

[13] = tested on: CYP3A4 mRNA; remark: listed apart in the source
Description: (§8) The cells were incubated at 37°C in a humidified incubator with 5% CO2. Plating medium was replaced with maintenance medium following 4 h incubation and then maintained overnight before 48 h treatment with test compound. Test compounds were freshly dissolved in dimethyl sulfoxide (DMSO) and then culture medium to achieve a final DMSO concentration of 0.1%. A vehicle control of medium with 0.1% DMSO was included in all studies.
as §2, §3, §7

[14] = tested on: CYP3A4 mRNA; assay: in vitro; conditions: human, EC50, induction of CYP3A4 mRNA, 5F
Description: as §1, §2, §3, §4

[15] = tested on: CYP3A4 mRNA; assay: in vitro; conditions: human, EC50, induction of CYP3A4 mRNA
Description: as §8, §2, §3, §7

[16] = tested on: CYP3A4 mRNA; assay: CYP3A4 mRNA induction in cryopreserved primary human hepatocytes (real-time PCR); conditions: for EC50 at 48 h: human, cryopreserved primary human hepatocytes
Description: as §8, §2, §3, §7

[17] = 48 h, value of each individual experiment (two per cell)
[18] = PXR-KO HepaRG cells, compared with 5F cells
[19] = cryopreserved primary human hepatocytes, donor D1 (Hu1455)
[20] = cryopreserved primary human hepatocytes, donor D3 (Hu8132)
[21] = donor D1 (Hu1455), NE = no effect observed, relative gene expression fold change <2
[22] = 5F HepaRG control cells, 48 h, value of each individual experiment (two per cell), read-out: EC50, induction of CYP2B6 mRNA, 5F
[23] = 5F cells, 48 h, value of each individual experiment (two per cell)
[24] = EC50, induction of CYP3A4 mRNA, 5F, 5F cells, 48 h, value of each individual experiment (two per cell)
[25] = PXR-KO vs 5F, HepaRG WT cells and PHHs

CO[C@H]1/C=C/O[C@@]2(C)Oc3c(C)c(O)c4c(O)c(c(/C=N/N5CCN(C)CC5)c(O)c4c3C2=O)NC(=O)/C(C)=C\C=C\[C@H](C)[C@H](O)[C@@H](C)[C@@H](O)[C@@H](C)[C@H](OC(C)=O)[C@@H]1C [Rifampicin, rifampicin]
E max, induction of CYP2B6 mRNA, 5F [1, 17]: 18.9 and 12.9
EC50 [1, 17]: 1.7 µM and 0.7 µM
E max, induction of CYP2B6 mRNA, HepaRG [2]: 5.2 ± 2.9
EC50 [2]: 0.3 ± 0.2 µM
CYP2B6 induction response in PXR-KO cells (in words) [3, 18]: No response
EC50 at 48 h [4, 19]: 0.1 µM
EC50 at 48 h ([4]; cryopreserved primary human hepatocytes, donor D2 (Hu1601)): 5.2 µM
EC50 at 48 h [4, 20]: 5.5 µM
E max, induction of CYP2B6 mRNA, primary human hepatocyte donor D1 [5, 21]: 3.9
E max, induction of CYP2B6 mRNA, primary human hepatocyte donor D2 ([5]; donor D2 (Hu1601), NE = no effect observed, relative gene expression fold change <2): 4.3
E max, induction of CYP2B6 mRNA, primary human hepatocyte donor D3 [5]: 16.3

O=C1NC(=O)C(c2ccccc2)(c2ccccc2)N1 [Phenytoin, phenytoin]
E max, induction of CYP2B6 mRNA, 5F [1, 17]: 7.3 and 10.6
EC50 [1, 17]: 7.8 µM
EC50 at 48 h [1, 22]: 5.1 µM
E max, induction of CYP2B6 mRNA, HepaRG [2]: 14.2 ± 3.7
EC50 [2]: 2.7 ± 1.7 µM
EC50 for CYP2B6 in PXR-KO cells in comparison to other cell types (in words) [3]: increased
E max for CYP2B6 in PXR-KO cells in comparison to other cell types (in words) [3]: lower
CYP3A4 induction response in PXR-KO cells (in words) [6]: much reduced
E max for CYP3A4 in PXR-KO cells in comparison to other cell types (in words) [6]: lower
EC50 for CYP3A4 in PXR-KO cells in comparison to other cell types (in words) [6]: increased
E max, induction of CYP3A4 mRNA, HepaRG [7]: 89.6 ± 8.1
EC50 [7]: 42.6 ± 6.6 µM
E max, induction of CYP3A4 mRNA, 5F [8, 23]: 16.0 and 20.8
EC50 at 48 h [8, 24]: 18.1 µM
EC50 [8, 23]: 19.9 µM

NC(=O)N1c2ccccc2C=Cc2ccccc21 [Carbamazepine, carbamazepine]
E max, induction of CYP2B6 mRNA, 5F [1, 17]: 3.1 and 7.4
EC50 [1, 17]: 5.4 µM
EC50 at 48 h [1, 22]: 8.4 µM
E max, induction of CYP2B6 mRNA, HepaRG [2]: 10.7 ± 4.3
EC50 [2]: 12 ± 7.3 µM
EC50 for CYP2B6 in PXR-KO cells in comparison to other cell types (in words) [3]: increased
E max for CYP2B6 in PXR-KO cells in comparison to other cell types (in words) [3]: lower
E max for CYP3A4 in PXR-KO cells in comparison to other cell types (in words) [9, 25]: ~four‐fold lower
EC50 for CYP3A4 in PXR-KO cells in comparison to other cell types (in words) [9, 25]: similar
EC50 at 48 h ([9]; human, PXR-KO HepaRG cells): 49 µM
E max, induction of CYP3A4 mRNA, HepaRG [7]: 33.5 ± 12.6
EC50 [7]: 24 ± 12.2 µM
E max, induction of CYP3A4 mRNA, 5F [8, 23]: 29.3 and 21.6
EC50 at 48 h [8, 24]: 37.4 µM
EC50 at 48 h ([8]; EC50 of CYP3A4 induction in 5F cells, single value given in text, data the average of two experiments): 38 µM

CCC1(c2ccccc2)C(=O)NC(=O)NC1=O [Phenobarbital, phenobarbital]
E max, induction of CYP2B6 mRNA, 5F [1, 17]: 5.9 and 5.5
EC50 [1, 17]: 195 µM
EC50 at 48 h ([1]; 48 h, value of each individual experiment (two per cell), read-out: EC50, induction of CYP2B6 mRNA, 5F): 145 µM
E max, induction of CYP2B6 mRNA, HepaRG [2]: 68.9 ± 47.3
EC50 [2]: 170 ± 6.8 µM
E max of CYP2B6 induction in PXR-KO cells ([3]; PXR-KO HepaRG cells, 48 h): 11.8
EC50 for CYP2B6 in PXR-KO cells in comparison to other cell types (in words) [3]: in agreement between the cell lines
EC50 at 48 h ([3]; PXR-KO HepaRG cells, 48 h): 98 µM
CYP2B6-induced activity response [10]: greater in the PXR‐KO cells
E max, induction of CYP3A4 mRNA, 5F [11]: 17.3, 28.1
EC50 [11]: 166 µM
E max, induction of CYP3A4 mRNA, HepaRG [12]: 110.0 ± 12.8
E max, induction of CYP3A4 mRNA, primary human hepatocyte donor D2 ([13]; hepatocytes): 13.3
E max, induction of CYP3A4 mRNA, primary human hepatocyte donor D3 ([13]; hepatocytes): 81.8
EC50 ([13]; male, human): 251 µM
CYP3A4 induction response in PXR-KO cells (in words) [6]: much reduced
E max of CYP3A4 induction in PXR-KO cells ([6]; human): 3.3
EC50 [14]: 108 µM
EC50 ([15]; primary human hepatocyte donor D1): 250 µM
EC50 ([15]; primary human hepatocyte donor D2): 366 µM
EC50 ([15]; primary human hepatocyte donor D3): 177 µM
EC50 at 48 h ([4]; male): 186 µM
E max, induction of CYP2B6 mRNA, primary human hepatocyte donor D1 [5, 21]: 20.2
E max, induction of CYP2B6 mRNA, primary human hepatocyte donor D3 [5]: 26.3
EC50 ([5]; read-out: EC50, induction of CYP2B6 mRNA, primary human hepatocyte donor D1, donor D1 (Hu1455)): 98.9 µM

Clc1ccc(-c2nc3sccn3c2C=NOCc2ccc(Cl)c(Cl)c2)cc1 [CITCO, 6‐(4‐chlorophenyl)imidazo[2,1‐b][1,3]thiazole‐5‐carbaldehyde O‐(3,4‐dichlorobenzyl)oxime]
CYP2B6 induction response in 5F cells (in words) [1]: responsive
E max, induction of CYP2B6 mRNA, 5F [1, 17]: 17.0 and 22.5
EC50 [1, 17]: 1 µM
EC50 at 48 h ([1]; 5F HepaRG control cells, single value given in text, data the average of two experiments, read-out: EC50 of CYP2B6 induction in 5F cells): 0.5 µM
E max, induction of CYP2B6 mRNA, HepaRG [2]: 14.2 ± 7.4
EC50 [2]: 0.03 ± 0.01 µM
E max for CYP2B6 in PXR-KO cells in comparison to other cell types (in words) [3]: similar
EC50 at 48 h ([3]; PXR-KO HepaRG cells, 48 h): 0.3 µM
CYP2B6-induced activity response [10]: greater in the PXR‐KO cells
EC50 at 48 h [4, 19]: 0.2 µM
EC50 at 48 h [4, 20]: 0.3 µM
CYP3A4 induction response in PXR-KO cells (in words) [9, 18]: maintained
E max, induction of CYP3A4 mRNA, HepaRG [7]: 21.1 ± 4.6
EC50 [7]: 1.5 ± 0.1 µM
E max, induction of CYP3A4 mRNA, 5F [8, 23]: 6.4 and 7.1
EC50 at 48 h [8, 24]: 1.9 µM
EC50 [8, 23]: 2 µM
E max, induction of CYP3A4 mRNA, primary human hepatocyte donor D1 ([16]; donor D1 (Hu1455), 48 h): 3.5
E max, induction of CYP3A4 mRNA, primary human hepatocyte donor D3 ([16]; donor D3 (Hu8132), 48 h): 2.3
EC50 at 48 h ([16]; donor D1 (Hu1455)): 0.3 µM
EC50 at 48 h ([16]; donor D3 (Hu8132)): 0.4 µM
E max, induction of CYP2B6 mRNA, primary human hepatocyte donor D1 [5, 21]: 6.0
E max, induction of CYP2B6 mRNA, primary human hepatocyte donor D3 [5]: 5.5
